Assays:
[1] = biological target: T1, HePTP (Homo sapiens, UniProt P35236); assay: HePTP dose-response confirmation screening; format: biochemical; conditions: for IC50: 10 concentrations, 2-fold serial dilution, pNPP substrate; for n / nH (Hill coefficient): Hill coefficient of the dose-response curve
T1 sequence (P35236 1-360): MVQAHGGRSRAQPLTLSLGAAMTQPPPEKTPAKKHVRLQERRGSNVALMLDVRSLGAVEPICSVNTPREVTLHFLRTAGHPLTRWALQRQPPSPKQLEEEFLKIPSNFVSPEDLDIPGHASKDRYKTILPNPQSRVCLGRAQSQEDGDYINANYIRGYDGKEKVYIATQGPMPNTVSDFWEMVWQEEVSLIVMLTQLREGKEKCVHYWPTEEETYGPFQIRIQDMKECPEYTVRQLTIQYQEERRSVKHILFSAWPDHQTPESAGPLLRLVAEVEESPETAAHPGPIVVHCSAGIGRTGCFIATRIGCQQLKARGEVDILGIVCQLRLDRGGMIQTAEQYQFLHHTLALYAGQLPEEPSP
Excerpt: (§1) The following assay can be conducted manually or can be carried out by a robotic station.
(§2) Compounds are then serially diluted in 100% DMSO, and then diluted with water to 10% final DMSO concentration.
(§3) The primary screening actives can then proceed to the dose-response confirmation stage.
* n represents the Hill coefficient. This coefficient is derived from the Hill equation which has the formula: […]
wherein θ is the fraction of ligand binding sites filled, L is the inhibitor concentration, Ka is the inhibitor concentration producing half occupation of the ligand binding sites, and n is the Hill coefficient.

[2] = biological target: T1, HePTP; assay: HePTP HTS primary screen (colorimetric pNPP / Biomol Green); format: biochemical; conditions: 20 μM compound; read-out: % Inhib. at 20 μM
Excerpt: as §1
For this assay, HePTP catalyzes the following reaction:
wherein p-nitrophenyl phosphate serves as a substrate and is cleaved to form p-nitrophenol and phosphate. The liberated phosphate complexes with the Biomol Green™ reagent to provide a quantitative colorimetric value for the amount of substrate cleaved.
as §2, §3

Compound	IC50 [1] [nM]	n / nH (Hill coefficient) [1]	inhibition at 20 µM [2] [%]
Cc1ccc2c(c1C)NC(C(=O)O)C1CC=CC21 (stereo not drawn) [6,7-dimethyl-3a,4,5,9b-tetrahydro-3H-cyclopenta[c]quinoline-4-carboxylic acid]	2120	2.01	102
O=C(O)c1c[nH]c2ccc(S(=O)(=O)N3CCN(c4ccc(F)cc4)CC3)cc2c1=O [6-[4-(4-Fluorophenyl)piperazin-1-yl]sulfonyl-4-oxo-1H-quinoline-3-carboxylic acid]	4660	2.66	103
O=C(O)C1Nc2c(O)cccc2C2C=CCC12 (stereo not drawn) [6-hydroxy-3a,4,5,9b-tetrahydro-3H-cyclopenta[c]quinoline-4-carboxylic acid]	200	2.11	103
COc1cccc2c1NC(C(=O)O)C1CC=CC21 (stereo not drawn) [6-methoxy-3a,4,5,9b-tetrahydro-3H-cyclopenta[c]quinoline-4-carboxylic acid]	1280	1.54	103
CCOC(=O)c1ccc2c(c1)C1C=CCC1C(C(=O)O)N2 (stereo not drawn) [8-(ethoxycarbonyl)-3a,4,5,9b-tetrahydro-3H-cyclopenta[c]quinoline-4-carboxylic acid]	280	2.97	103
O=C(Oc1ccccc1)c1ccc2c(c1)C1C=CCC1C(C(=O)O)N2 (stereo not drawn) [8-(phenoxycarbonyl)-3a,4,5,9b-tetrahydro-3H-cyclopenta[c]quinoline-4-carboxylic acid]	840	3.34	96.4
Cc1ccc2c(c1)C1C=CCC1C(C(=O)O)N2 (stereo not drawn) [8-methyl-3a,4,5,9b-tetrahydro-3H-cyclopenta[c]quinoline-4-carboxylic acid]	410	2.41	102
COc1ccc(OC)c(N2C(=O)[C@H]3C(c4ccccc4Cl)=NO[C@@H]3C2=O)c1 [(1S,5S)-2-(2-chlorophenyl)-7-(2,5-dimethoxyphenyl)-4-oxa-3,7-diazabicyclo[3.3.0]oct-2-ene-6,8-dione]	8250	2.27	85.1
C/C(N)=C(\C#N)C(=O)CSc1nnc(Nc2c(C)cccc2C)s1 [(Z)-3-Amino-2-[2-[[5-[(2,6-dimethylphenyl)amino]-1,3,4-thiadiazol-2-yl]sulfanyl]acetyl]but-2-enenitrile]	30200	2.66	77.9
CCCCC[C@H](O)/C=C/[C@H]1C=CC(=O)[C@@H]1C/C=C\CCCC(=O)O [(Z)-7-[(1R,2S)-2-[(E,3S)-3-Hydroxyoct-1-enyl]-5-oxo-1-cyclopent-3-enyl]hept-5-enoic acid]	13700	2.49	57.3
CCOC(=O)C1CCN(C(=O)Nc2ccc3nc(-c4ccco4)c(-c4ccco4)nc3c2)CC1 [Ethyl 1-[[2,3-bis(2-furyl)quinoxalin-6-yl]carbamoyl]piperidine-4-carboxylate]	1120	1.95	103
CCOC(=O)C(C)Sc1nc2c(c(=O)[nH]c(=O)n2C)n1C/C=C(/C)Cl (stereo not drawn) [Ethyl 2-[7-[(Z)-3-Chlorobut-2-enyl]-3-methyl-2,6-dioxo-purin-8-yl]sulfanylpropanoate]	8330	1.44	55.4
COC(=O)c1ccccc1NC(=O)c1noc2ccccc12 [Methyl 2-(4-oxa-3-azabicyclo[3.3.0]octa-2,9-diene-2-carbonylamino)benzoate]	2330	1.45	81.2
Cc1cc(NC(=O)Cc2cccs2)no1 [N-(5-methyl-1,2-oxazol-3-yl)-2-thiophen-2-ylacetamide]	700	2.49	99.7
O=C(NCc1ccco1)c1c2c(nc3ccccc13)CCC2 [N-(Furan-2-ylmethyl)-2,3-dihydro-1h-cyclopenta[b]quinoline-9-carboxamide;]	4630	1.52	62
Cn1cnnc1SCC(=O)Nc1sc2c(c1C(=O)ON)CCC2 [N-[3-(aminooxycarbonyl)-5,6-dihydro-4H-cyclopenta[b]thiophen-2-yl]-2-(4-methyl-4H-1,2,4-triazol-3-ylthio)acetamide]	2430	2.33	90.2
CCc1ccc(OCC(=O)NC2=CC(=O)/C(=C3/Nc4ccccc4O3)C=C2)cc1 [N-[(4Z)-4-(3H-Benzooxazol-2-ylidene)-3-oxo-1-cyclohexa-1,5-dienyl]-2-(4-ethylphenoxy)acetamide]	5280	0.29	59
COc1ccc(Cc2nnc(NC(=O)Cc3cccs3)s2)cc1 [N-{5-[(4-methoxyphenyl)methyl]-1,3,4-thiadiazol-2-yl}-2-thiophen-2-ylacetamide]	4020	2.33	103
CC(=O)OCC1=C(C(=O)[O-])N2C(=O)[C@H](NC(=O)Cc3cccs3)[C@H]2SC1.[Na+] [Sodium (6R,7S)-3-(acetyloxymethyl)-8-oxo-7-[(2-thiophen-2-ylacetyl)amino]-5-thia-1-azabicyclo[4.2.0]oct-2-ene-2-carboxylate]	920	1.12	96.2
Cn1nnnc1SCC1=C(C(=O)[O-])N2C(=O)[C@H](NC(=O)[C@H](O)c3ccccc3)[C@H]2SC1.[Na+] [Sodium (6R,7S)-7-[[(2R)-2-hydroxy-2-phenyl-acetyl]amino]-3-[(1-methyltetrazol-5-yl)sulfanylmethyl]-8-oxo-5-thia-1-azabicyclo[4.2.0]oct-2-ene-2-carboxylate]	100	0.6	98
CC(C)Cn1c(N)c(C(=O)COC(=O)c2cc(-c3ccco3)nc3ccccc23)c(=O)n(C)c1=O [[2-[4-Amino-1-methyl-3-(2-methylpropyl)-2,6-dioxo-pyrimidin-5-yl]-2-oxo-ethyl] 2-(2-furyl)quinoline-4-carboxylate]	5270	2.48	89.7
COc1ccc(C(=O)c2no[n+]([O-])c2C(=O)c2ccc(OC)cc2)cc1 [[4-(4-Methoxybenzoyl)-2-oxido-1-oxa-5-aza-2-azoniacyclopenta-2,4-dien-3-yl]-(4-methoxyphenyl)methanone]	11300	0.45	86.3
CC(C)CN(C(=O)COC(=O)c1cc2c(s1)CCC2)C1CCS(=O)(=O)C1 (stereo not drawn) [[(1,1-Dioxothiolan-3-yl)-(2-methylpropyl)carbamoyl]methyl 4-thiabicyclo[3.3.0]octa-2,9-diene-3-carboxylate]	1210	1.52	58.7

— patent US20120095032A1, “METHODS FOR TREATING LEUKEMIA AND MYELODYSPLASTIC SYNDROME, AND METHODS FOR IDENTIFYING AGENTS FOR TREATING SAME” (Sanford-Burnham Medical Research Institute, priority 2007, published 2012)
